According to patent publication US20220332839A1, “USE OF PRG4 TO TREAT CANCER” (Lubris LLC, priority 2019, published 2022):

Tests used:
CD44-IgG1Fc = molecular target: T1, CD44-IgG1Fc (Homo sapiens, UniProt P16070); assay: Direct ELISA: binding of coated macromolecules to CD44-IgG1Fc; conditions: for percentage binding to CD44 of enzyme-digested rhPRG4 compared to untreated control: coating 30 μg/mL, digestion 16 hours at 37° C.
T1 construct: purchased R & D systems
Method: High-binding microtiter plates (Corning, Sigma Aldrich, USA) were coated with rhPRG4 (Mr≅240 KDa), high molecular weight HA (HMW HA; Mr≅1,500 KDa) (R & D System, USA), medium molecular weight HA (MMW HA; Mr≅′300KDa) (R & D System) and vitronectin KDa) (Sigma Aldrich) at 400 μg/mL in PBS buffer (100 μL per well) overnight at 4° C. rhPRG4 is a full-length product produced by CHO-M cells (Lubris, Framingham, Mass., USA). Following washing with PBS+0.1% Tween 20, wells were blocked with 2% bovine serum albumin (BSA; 300 μL per well) for at least 2 hours at room temperature. CD44-IgG1Fc (R & D systems) or IgG1Fc (R & D systems), each at 1 μg/mL (100 μl per well), were added to the plate and incubated for 60 min at room temperature. Following washing with PBS+0.1% tween 20, anti-IgG1Fc-HRP (Sigma Aldrich) was added at 1:10,000 dilution (100 μL per well) and incubated for 60 min at room temp. Following washing with PBS+0.1% tween 20, the assay was developed using 1-step Turbo TMB ELISA reagent (ThermoScientific, USA) and absorbance was measured at 450 nm. The data represents an average of 4 independent assays, each with triplicate wells per group.
The concentration-dependent binding of rhPRG4, HMW HA and MMW HA to CD44 was performed by coating microtiter plates with 400, 200, 100, 20, 4, 2 and 0.1 μg/mL of the macromolecules. The assay was performed as described above. The absorbance values in the IgG1Fc wells were subtracted from the absorbance values in the CD44 IgG1Fc wells and the corrected CD44 IgG1Fc absorbance values were normalized to those of the 400 μg/mL rhPRG4 group and data was expressed as percentage binding to CD44. The concentration-dependent binding of rhPRG4, HMW HA and MMW HA to recombinant CD44 is depicted in FIG. 1B. […] The data represents an average of 4 independent assays, each with triplicate wells per group.
rhPRG4 was digested using sialidase A (Prozyme, USA), O-glycosidase (New England Biolabs, USA) or a combination of sialidase A and O-glycosidase for 16 hours at 37° C. In the sialidase A digestion, 12 μL of the enzyme (1U/200 μL) was added to rhPRG4 in a total reaction volume of 180 μL and a rhPRG4 final concentration of 300 μg/mL. In the O-glycosidase digestion, 4.8 μL of the enzyme (40million units/mL) was added to rhPRG4 in a total reaction volume of 180 μL and a rhPRG4 final concentration of 300 μg/mL under non-denaturing conditions. In the sialidase-A and O-glycosidase digestion, the enzymes were used in volumes identical to the ones stated above and incubated with rhPRG4 in a total reaction volume and final rhPRG4 concentration as stated above. The effect of sialidase-A and O-glycosidase digestions on rhPRG4 apparent molecular weight was determined by SDS-PAGE using 4-12% Bis-Tris gel (NuPage, life technologies, USA). A total of 20 μL of rhPRG4 or enzyme-digested rhPRG4 was run under reducing conditions ([…] for 60 min) followed by staining using Gelcode Blue Stain (Thermo Scientific, USA). Binding of enzymatically digested rhPRG4 to CD44 was compared to undigested rhPRG4 using the direct ELISA approach described above and using an rhPRG4 coating concentration of 30 μg/mL. Data represents the average of 4 independent experiments, each with triplicate wells per group.

lubricin (PRG4) mRNA = assay: PRG4 mRNA expression in CAFs and ex vivo HCC specimens; type: cell-based, human
Method: RNA extraction and cDNA synthesis: […] of frozen ex-vivo treated HCC tissues were ground with a mortar-pestle in the presence of liquid nitrogen until a thin powder was obtained. The ground tissues were lysed with 0.5-1 ml of RLT buffer+1% (BME) and then processed according to the manufacturer's recommendations (RNeasy kit, Qiagen). […] The obtained RNA was assayed for quality and concentration using the NanoDrop 2000/2000c (Thermo Fisher Scientific). cDNA was synthetized using the High Capacity cDNA reverse transcription kit (Thermo Fisher Scientific), according to relative datasheet.
Real time PCR: One ng/μl of cDNA was used in total 20 μl reaction mix in the presence of 500 nM of each forward and reverse primer referred to a specific gene of interest, and 2×SYBR green master mix (Bio-Rad). The reaction was conducted in a CFX96 Touch Real-Time Detection System (Bio-Rad).
CAFs isolation: Immediately after surgical resection, HCC tumoral and peritumoral specimens were minced into 0.5-1 cm pieces and left in MACS Tissue Storage Solution (Miltenyi Biotec). The tissues were then further cut into smaller size pieces (1-2 mm), washed three times in Hanks balanced salt solution (HBSS), and then incubated in HBSS in the presence of type IV collagenase (Thermo Fisher Scientific) and 3 mM CaCl2 at 37° C. under gentle rotation for 4 hours. At the end of this step, the dissociation was mechanically facilitated by pipetting up-down the digested tissues with a large size orifice 50 ml pipette. The floating cells were collected and washed three times with HBSS and seeded in normal culture conditions in IMDM+20% FBS. The decanted, partially digested tissue specimens were subjected to a second round of digestion (as previously described). The resulting dissociated cells were washed with HBSS and cultured in IMDM+20% FBS. […] The presence of minimal contaminating non-fibroblastic cells (mostly cancerous hepatocytes, cholangiocytes and macrophages) was evaluated using antibodies to EpCAM, CD45, and CD11b.

[1] = test system: MDA-MB-231 cell-derived organoids; assay: Three-dimensional Matrigel culture, proportion of spherical vs invasive organoids; type: cell-based, human; conditions: for TGFβ-induced invasive growth of organoids: rhPRG4 0.1, 10, 100 μg/mL, 4-MU 0.5 mM
Method: For three-dimensional culture assays, 50 μl of ice-cooled 33% growth factor-reduced Matrigel (Corning Incorporated, USA) in complete growth medium, consisting of DMEM containing 10% FBS, penicillin, streptomycin and amphotericin B (Invitrogen, Canada), was added per well of a 96-well flat bottom, ultra-low attachment plate (BD Biosciences, Canada) followed by storing the plate for 1 hour in a 5% CO2 humidified incubator at 37° C. to allow formation of a 1 mm-thick Matrigel bed in the well. Next, approximately 400 isolated MDA-MB-231 cells, suspended in 50 μl ice-cooled 50% Matrigel in complete growth medium, were layered on top of the Matrigel bed per well of the 96-well plate and incubated inside 5% CO2 humidified incubator at 37° C. One hour post addition and 37° C. incubation of Matrigel-cells suspension, 50 μl of complete growth medium was added to cover the solidified Matrigel-cells mixture. The following day and, every third day, the three-dimensional cultures received 50 μl of fresh complete growth medium without or with specified reagents as listed in the figure descriptions. On Day 8 of culture, differential interference contrast (DIC) images were captured of 8 representative organoids from each well, using light microscopy at 30× objective (Olympus IX70, Canada). […] Number of smooth surfaced organoids without any protrusions, designated as “spherical” were counted out of eight representative images in each well and then percentage of spherical organoids in each condition were plotted in bar graphs. Each experiment was performed at least three independent times for statistical analyses.

[2] = test system: HCC cells (HLE, HLF, PLC/DC/19, Hep3B, PLC/PRF/5); assay: 72-hour proliferation assay, all HCC cells; type: cell-based, human; conditions: Homo sapiens, same experimental conditions
Method: (§1) Proliferation assay: In 100 μl complete medium, 3,000 cells were seeded in wells of a 96-well plate and left overnight to allow complete attachment. The next day (at time t=0 hours), the medium was removed and replaced with 100 μl of fresh medium in the presence/absence of Sorafenib (2.5 μM), Regorafenib (2.5 μM), rhPRG4 (12.5 to 100 μg/ml). Dimethyl sulfoxide (DMSO) and PBS+0.01% Tween-20 were used as vehicles of Sorafenib/Regorafenib, and rhPRG4, respectively. Cells in triplicate wells for each cell line were fixed at t=0 hours with 4% paraformaldehyde (PFA, pH 7.6, 10 min incubation), then stained with crystal violet (CV) and thoroughly washed to remove the excess staining. After 72 hours, the cells were fixed by adding 100 μl of 4% PFA directly to the medium (2% final PFA concentration, 20 min incubation), and processed for CV staining as previously described. Then, 100 or 200 μl of 1% sodium dodecyl-sulphate were added to the wells and the plates were left under shaking until complete CV release from stained cells. Optical density was at 595 nm wavelength measured using a plate reader.

CD44-shRNA HCC cells = assay: 72-hour proliferation assay, CD44-silenced HCC cells; type: cell-based, human; conditions: 2.5 μM drug; rhPRG4 0 to 100 μg/ml; p<0.05 to p<0.001
From the text: Stable CD44 silencing: HLE and HLF cell lines were transduced with lentiviral particles carrying control non-targeting (V), or specific CD44-targeting shRNA sequences (A to D), and selected with puromycin dihydrochloride (Thermo Fisher Scientific) to obtain stable CD44 silencing, according to manufacturer instructions (OriGene Technologies, Inc., Rockville, Md. 20850, USA). Control-shRNA sequence (V) and CD44-shRNA sequence B were used in all the experiments involving CD44 downregulation.
as §1, with “After 72 hours, the cells were fixed by adding 100 μl of 4% PFA directly to the medium (2% final PFA concentration, 20 min incubation), and processed for CV staining as previously described. Then, 100 or 200 μl of 1% sodium dodecyl-sulphate were added to the wells and the plates were left under shaking until complete CV release from stained cells.” left out

MDA-MB-231 cells = assay: In vitro trans-well invasion assay; type: cell-based, human; conditions: 100 pM TGFβ; 400 μg/mL LMWHA
Method: Overnight 0.2% FBS-containing DMEM incubated, i.e. serum-starved, MDA-MB-231 cells were used for the transwell invasion using polycarbonate filters (24-well insert, pore size 8 μm; BD Biosciences, Canada). Prior to addition of cells, each insert was placed within a well of a 24-well tissue culture plate and equilibrated with 0.5 mL serum-free DMEM, added both to the upper and lower chambers at 37° C. for 2 h. The equilibration media was then gently removed and upper chamber surface of the insert was coated with 50 μL of 3% Matrigel and allowed to solidify at 37° C. for 1 h. 1×10^5 serum-starved MDA-MB-231 cells were resuspended in 0.5 mL of serum-free DMEM and added to the upper Matrigel-coated chamber. 500 μL complete growth medium alone or containing specific reagents, as described in the respective figure descriptions, was added to the lower chambers. Cells were allowed to invade the matrix for 12 h at 37° C. after which non-adherent cells were removed by PBS washing of cell layers on the upper chamber three times. During the second wash a cotton tip applicator was used to gently scrape away the adherent cells on the upper surface of the membrane. Invading cells were fixed by immersing the transwell inserts in 100% methanol for 10 minutes at −20° C., followed by staining with 0.5% crystal violet dye (EMD Millipore, Canada) for 1 h at room temperature. Eight randomly chosen fields of each stained membrane were imaged at 10× objective of a DIC microscope (Olympus IX70) coupled to a digital camera. Cell numbers were obtained by counting the number of crystal violet stained cells in each field using a handheld counter. The average cell numbers for all images per treatment conditions were calculated and used for further statistical analysis. Each experiment was performed at least three independent times.

T1 sequence (P16070 with tags, fused parts or gaps limits assumed): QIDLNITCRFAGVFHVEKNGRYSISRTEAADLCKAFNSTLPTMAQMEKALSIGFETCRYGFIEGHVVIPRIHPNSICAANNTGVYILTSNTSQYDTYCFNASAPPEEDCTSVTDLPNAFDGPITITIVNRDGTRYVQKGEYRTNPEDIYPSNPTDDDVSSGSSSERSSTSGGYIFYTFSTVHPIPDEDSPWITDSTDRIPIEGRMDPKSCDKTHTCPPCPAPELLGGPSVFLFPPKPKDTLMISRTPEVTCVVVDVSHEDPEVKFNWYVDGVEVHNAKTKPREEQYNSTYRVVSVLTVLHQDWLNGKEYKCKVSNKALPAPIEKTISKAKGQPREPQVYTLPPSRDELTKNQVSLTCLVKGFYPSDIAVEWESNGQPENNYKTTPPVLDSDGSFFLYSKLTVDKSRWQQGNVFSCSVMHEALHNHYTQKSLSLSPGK

**Q.** Which “percentage binding to CD44 of enzyme-digested rhPRG4 compared to untreated control” value (“percentage binding to CD44” for short) (CD44-IgG1Fc) does the source give for “sialidase-A and O-glycosidase-digested rhPRG4: rhPRG4 digested using a combination of sialidase A and O-glycosidase” here?
**A.** Its value is “significantly higher”.

**Q.** With “vitronectin: vitronectin (Sigma Aldrich), shares sequence homology with lubricin [reference compound]” as the compound, how does the “450 nm absorbance in the CD44-IgG1Fc group vs the IgG1Fc group” value (CD44-IgG1Fc; wells coated at 400 μg/mL, CD44-IgG1Fc or IgG1Fc at 1 μg/mL) read?
**A.** The value was “no significant difference”.

**Q.** How did the “expression of lubricin in comparison to controls” value (lubricin (PRG4) mRNA; LY2157299 alone, 48 hours) turn out when `Cc1cccc(-c2nn3c(c2-c2ccnc4ccc(C(N)=O)cc24)CCC3)n1` [LY2157299, galunisertib] was run?
**A.** The value was “downregulated the expression of lubricin”.

**Q.** And the “effect on TGFβ-enhanced expression of lubricin” value (lubricin (PRG4) mRNA; TGFβ plus LY2157299, 48 hours, p<0.01)?
**A.** The value was “offset this effect”.

**Q.** Which “percentage binding to CD44” value (CD44-IgG1Fc) does the source give for “sialidase-A digested rhPRG4: rhPRG4 digested using sialidase A for 16 hours at 37° C.” here?
**A.** Its value is “significant increase”.

**Q.** With “O-glycosidase digested rhPRG4: rhPRG4 digested using O-glycosidase for 16 hours at 37° C.” as the compound, how does the “percentage binding to CD44” value (CD44-IgG1Fc) read?
**A.** The value was “significant increase”.

**Q.** How did the “TGFβ-induced invasive growth of organoids” value ([1]; 100 pM TGFβ, 8-day, KI 10 μM) turn out when `Cc1cc(=O)oc2cc(O)ccc12` [4-MU, 4-methylumbelliferone, reference compound] was run?
**A.** Its value is “suppressed TGFβ-induced invasive growth”.

**Q.** `CNC(=O)c1cc(Oc2ccc(NC(=O)Nc3ccc(Cl)c(C(F)(F)F)c3)c(F)c2)ccn1` [Regorafenib] was tested. Which IC50 [2] did it give?
**A.** The IC50 was roughly 5 µM.

**Q.** What about the “capacity in inhibiting cells proliferation in CD44 silenced cells compared to control cells” value (CD44-shRNA HCC cells) of the same compound?
**A.** The value was “significantly reduced”.

**Q.** What does the source list for `NC(=O)c1ccc(-c2nc(-c3ccc4c(c3)OCO4)c(-c3ccccn3)[nH]2)cc1` [KI, SB431542, reference compound]?
**A.** TGFβ-induced invasive growth of organoids ([1]; 100 pM TGFβ, 8-day, KI 10 μM): suppressed the TGFβ-induced invasive growth; LMWHA-induced invasive growth of organoids ([1]; LMWHA 10-400 μg/mL, 100 μg/mL rhPRG4, KI 10 μM): could not reverse the LMWHA effect

**Q.** What does the source list for “Sodium Hyaluronate [LMWHA, reference compound]”?
**A.** invasive growth of organoids, stimulus alone ([1]; 100 pM TGFβ, LMWHA 10, 100 or 400 μg/mL, 8-day): increase the proportion of invasive organoids; invasion of cells, stimulus alone vs untreated control (MDA-MB-231 cells): increased the proportion of invading cells

**Q.** `CNC(=O)c1cc(Oc2ccc(NC(=O)Nc3ccc(Cl)c(C(F)(F)F)c3)cc2)ccn1` [Sorafenib] was tested. Which IC50 [2] did it give?
**A.** The IC50 was roughly 5 µM.

**Q.** And the “capacity in inhibiting cells proliferation in CD44 silenced cells compared to control cells” value (CD44-shRNA HCC cells)?
**A.** Its value is “significantly reduced”.
